Where two headings read alike, the source gives them in different places.
How the values were obtained:
Assay in all cases: MIC and synergy index test in 96 well microtiter plates
Assay type in all cases: cell-based
[1] = test system: Pseudomonas aeruginosa ATCC #15442; conditions: 1/10 TSB
Protocol: Surfactants and biocides were evaluated for synergy by determining the synergy index (S.I.) of the combination. Synergy index was calculated based on minimum inhibitory concentrations (MIC) of two antimicrobial compounds (A and B) alone and in combinations. The tests organisms were Gram negative bacteria (Pseudomonas aeruginosa ATCC #15442), Gram positive bacteria (Staphylococcus aureus ATCC #6538), yeast (Candida albicans ATCC#10203) and mold (Aspergillus niger ATCC#16404). […] The test was carried out in 96 well microtiter plates. • Surf. A R^1O(CH2CH(CH3)O)5(CH2CH2O)9H, where R^1 is 2-ethylhexyl • Surf. D R^2O(CH2CH(CH3)O)3(CH2CH2O)5H • Surf. E R^2O(CH2CH(CH3)O)3(CH2CH2O)7H • In Surf. D and Surf. E, R^2 is a mixture of C8-C14 linear alkyl groups (70% C8-C10 linear alkyl and 30% C12-C14 linear alkyl)
(§1) The pH of the Triptic soy broth was 7.3 and the Potato dextrose broth was 5.1.
(§2) SI is calculated as follows: Ca/CA+Cb/CB=Synergy Index(“SI”)
(§3) Wherein: • CA=concentration of compound A in ppm, acting alone, which produced an end point (MIC of Compound A). • Ca=concentration of compound A in ppm, in the mixture, which produced an end point. • CB=concentration of compound B in ppm, acting alone, which produced an end point (MIC of Compound B). • Cb=concentration of compound B in ppm, in the mixture, which produced an end point.
(§4) When the sum of Ca/CA and Cb/CB is greater than one, antagonism is indicated.

[2] = test system: Candida albicans ATCC#10203; conditions: PDB
Protocol: (§5) Surfactants and biocides were evaluated for synergy by determining the synergy index (S.I.) of the combination. Synergy index was calculated based on minimum inhibitory concentrations (MIC) of two antimicrobial compounds (A and B) alone and in combinations. The tests organisms were Gram negative bacteria (Pseudomonas aeruginosa ATCC #15442), Gram positive bacteria (Staphylococcus aureus ATCC #6538), yeast (Candida albicans ATCC#10203) and mold (Aspergillus niger ATCC#16404). Contact time for the bacteria was 24 and 48 hours, yeast was 48 and 72 hrs, and 3 and 7 days for mold. The test was carried out in 96 well microtiter plates. • Surf. A R^1O(CH2CH(CH3)O)5(CH2CH2O)9H, where R^1 is 2-ethylhexyl • Surf. D R^2O(CH2CH(CH3)O)3(CH2CH2O)5H • Surf. E R^2O(CH2CH(CH3)O)3(CH2CH2O)7H • In Surf. D and Surf. E, R^2 is a mixture of C8-C14 linear alkyl groups (70% C8-C10 linear alkyl and 30% C12-C14 linear alkyl)
as §1, §2, §3, §4

[3] = test system: Aspergillus niger ATCC#16404; conditions: PDB
Protocol: as §5, §1, §2, §3, §4

[4] = test system: Staphylococcus aureus ATCC #6538; conditions: ATCC6538, 24 h
Protocol: as §5, §1, §2, §3, §4

Question: What does the source list for `CC1(C)COCN1` [DMO, 4,4-dimethyloxazolidine]?
Answer: MIC ([1]; ATCC15442, 24 h, A: Surf. A, B: DMO, P. aeruginosa ATCC#15442, 24 hrs, inoculum 8.134+07 CFU/ml, read-out: CB (MIC of compound B acting alone)): 80 µg/mL; MIC ([2]; ATCC10203, 48 h, A: Surf. E, B: DMO, C. albicans ATCC#10203, 48 hrs, inoculum 1808E+06, read-out: CB (MIC of compound B acting alone)): 1000 µg/mL; MIC ([2]; ATCC 10203 / ATCC 10231, 48 h, A: Surf. D, B: DMO, C. albicans ATCC#10231, 48 hrs, inoculum 5.726E+05 CFU/ml, read-out: CB (MIC of compound B acting alone)): 1000 µg/mL; MIC ([2]; ATCC 10203 / ATCC 10231, A: Surf. A, B: DMO, C. albicans ATCC#10231, 3rd Day, inoculum 1.156E+06 CFU/ml, read-out: CB (MIC of compound B acting alone)): 1000 µg/mL; MIC ([3]; ATCC16404, A: Surf. A, B: DMO, A. niger ATCC#16404, 3rd Day, inoculum 1.156E+06 CFU/ml, read-out: CB (MIC of compound B acting alone)): 60 µg/mL; MIC ([3]; ATCC16404, A: Surf. D, B: DMO, A. niger ATCC# 16404, 3rd day, inoculum 1.156E+06, read-out: CB (MIC of compound B acting alone)): 400 µg/mL; MIC ([3]; ATCC16404, A: Surf. E, B: DMO, A. niger ATCC#16404, 3rd Day, inoculum 1.56E+06 CFU/ml, read-out: CB (MIC of compound B acting alone)): 800 µg/mL; MIC ([4]; A: Surf. D, B: 1135, S. aureus ATCC#6538, 24 hrs, 1/10 TSB, inoculum 1.16E+08, read-out: CB (MIC of compound B acting alone)): 80 µg/mL; MIC ([4]; A: Surf. E, B: DMO, ATCC# 6538, 24 hrs, 1/10 TSB, inoculum 1.80E+06 CFU/ml, read-out: CB (MIC of compound B acting alone)): 80 µg/mL; MIC ([4]; read-out: CB (MIC of compound B acting alone)): 50 µg/mL

Question: How did the MIC ([1]; ATCC15442, 24 h, A: Surf. D, B: TrisNitro, Ps. aeruginosa ATCC#15442, 24 hrs, inoculum 1.16E+08, read-out: CB (MIC of compound B acting alone)) turn out when `O=[N+]([O-])C(CO)(CO)CO` [Tris Nitro, tris(hydroxymethyl)nitromethane] was run?
Answer: The MIC was 800 µg/mL.

Question: What about the MIC ([1]; ATCC15442, 24 h, A: Surf. E, B: TrisNitro, Ps. aeruginosa ATCC#15442, 24 hrs, inoculum 5.727E+07 CFU/ml, read-out: CB (MIC of compound B acting alone)) of the same compound?
Answer: The MIC was 1000 µg/mL.

Question: What about the MIC ([4]; A: Surf. E, B: TrisNitro, S. aureus ATCC# 6538, 24 hrs, 1/10 TSB, inoculum 1.808E+06 CFU/ml, read-out: CB (MIC of compound B acting alone)) of the same compound?
Answer: Its MIC is 500 µg/mL.

Question: What does the source list for `Cl/C=C\C[N+]12CN3CN(CN(C3)C1)C2.[Cl-]` [CTAC, cis-1-(3-chloroallyl)-3,5,7-triaza-1-azoniaadamantane chloride]?
Answer: MIC ([1]; ATCC15442, 72 h, A: Surf. A, B: CTAC, P. aeruginosa ATCC#15442, 3rd Day, inoculum 1.156E+06, read-out: CB (MIC of compound B acting alone)): 600 µg/mL; MIC ([2]; ATCC10203, 48 h, A: Surf. D, B: CTAC, C. albicans ATCC#10203, 48 hrs, inoculum 5.726E+05 CFU/ml, read-out: CB (MIC of compound B acting alone)): 1000 µg/mL; MIC ([2]; ATCC10203, 48 h, A: Surf. E, B: CTAC, C. albicans ATCC 10203, 48 hrs, inoculum 1.808E+05, read-out: CB (MIC of compound B acting alone)): 3000 µg/mL; MIC ([3]; ATCC16404, A: Surf. D, B: CTAC, A. niger ATCC#16404, 3rd day, inoculum 1.156E+06, read-out: CB (MIC of compound B acting alone)): 1000 µg/mL; MIC ([4]; A: Surf. D, B: CTAC, S. aureus ATCC# 6538, 24 hrs, 1/10 TSB, inoculum 1.808E+05, read-out: CB (MIC of compound B acting alone)): 300 µg/mL; MIC ([4]; A: Surf. E, B: CTAC, S. aureus ATCC# 6538, 24 hrs, 1/10 TSB, inoculum 1.8E+06, read-out: CB (MIC of compound B acting alone)): 200 µg/mL

Source: patent publication US9968089B2, “Microbicidal composition” (Dow Global Technologies LLC, priority 2013, dated 2018)
